Results as given in BindingDB's records for doi:10.1021/jm051059p (Merck Frosst Centre For Therapeutic Research, 2006).

Molecular target: T1, Cathepsin K (Oryctolagus cuniculus, UniProt P43236)
T1 sequence (P43236 whole entry): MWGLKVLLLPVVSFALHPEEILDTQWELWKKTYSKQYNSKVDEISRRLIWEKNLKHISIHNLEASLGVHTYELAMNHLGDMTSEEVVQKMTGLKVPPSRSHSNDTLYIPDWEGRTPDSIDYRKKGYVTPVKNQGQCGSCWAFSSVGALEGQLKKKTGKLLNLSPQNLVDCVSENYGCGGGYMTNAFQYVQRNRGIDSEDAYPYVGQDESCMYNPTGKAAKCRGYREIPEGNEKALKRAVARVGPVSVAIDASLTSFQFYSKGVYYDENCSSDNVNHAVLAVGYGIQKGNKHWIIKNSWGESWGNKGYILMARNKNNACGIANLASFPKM
Assay: Enzyme Inhibition Assay
Description: Prior to the addition of substrate, different concentrations of the inhibitor ranging from 100 uM to 0.2 nM were preincubated for 15 min with enzyme to allow the establishment of the enzyme-inhibitor complex. The proteolytic cleavage of N-acyl aminocoumarins by cathepsins was conducted in 96-well plate format and the plate read using a Spectramax (Molecular Devices) plate reader. The excitation wavelength was 355 nm and the emission wavelength was 460 nm for peptidyl-AMC substrates. The percent inhibition of the reaction was calculated from a control reaction containing only vehicle. IC50 curves were generated by fitting percent inhibition values to a four parameter logistic model (SOFTMAX PRO, Molecular Devices).

| IC50 (pH 5.5, 22 °C) | IC50 | Structure (SMILES) |
| --- | --- | --- |
| 100 nM | – | Cc1ccc(SC[C@@H]2CCCC[C@H]2C(=O)NCC#N)cc1 [racemic mixture] |
| 0.5 nM | – | CSc1ccc(/C=C\[C@@H]2CCCC[C@H]2C(=O)NCC#N)cc1 (racemic) [racemic mixture] |
| – | 19 nM | N#CCNC(=O)[C@@H]1CC(F)(F)CC[C@H]1c1ccccc1-c1ccc(F)cc1 (racemic) [racemic mixture] |
| 100 nM | – | N#CCNC(=O)[C@@H]1CCCC[C@H]1CSc1ccc(N)cc1 (racemic) [racemic mixture] |
| 1.7 nM | – | CSc1ccc(CC[C@@H]2CCCC[C@H]2C(=O)NCC#N)cc1 [racemic mixture] |
